Experiments:
Assay type in all cases: cell-based
[1] = biological target: human α1H T-type channels (Homo sapiens, UniProt O95180); assay: T-type calcium channel block, whole cell patch clamp, α1H; conditions: HEK cells stably expressing human α1H; mainly non-inactivated protocol; values above 10,000 nM represented as 10000
Summary of the method: (§1)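 Using standard patch-clamp, T-type currents were recorded from stably transfected human α1G or α1H HEK 293 cells. Separate non-inactivating and inactivation voltage protocols distinguished resting from voltage-dependent block by locally applied compound in 0.1-0.01% DMSO.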

[2] = biological target: human α1G T-type channels (Homo sapiens, UniProt O43497); assay: T-type calcium channel block, whole cell patch clamp, α1G; conditions: HEK cells stably expressing human α1G; mainly non-inactivated protocol; values above 10,000 nM represented as 10000
Summary of the method: as §1

[3] = biological target: N-type calcium channel subunits (α1B, α2δ, and β3a) (Homo sapiens, UniProt Q00975); assay: Block of Cav2.2 channel, whole cell voltage clamp, manual and PatchXpress; conditions: Table 5; table follows Assay Example 3 (whole cell voltage clamp / PatchXpress); assay not given
Summary of the method: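 Percent block taken as current amplitude ratio with versus without compound, applied in rising doses; IC50 fitted where one cell received multiple doses. Protocol: 50 ms pulses to +20 mV at 0.067 Hz from […] or −90 mV holding; P/n leak subtraction, no junction-potential correction; manual and PatchXpress recordings.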

Chain of human α1G T-type channels (O43497 whole entry): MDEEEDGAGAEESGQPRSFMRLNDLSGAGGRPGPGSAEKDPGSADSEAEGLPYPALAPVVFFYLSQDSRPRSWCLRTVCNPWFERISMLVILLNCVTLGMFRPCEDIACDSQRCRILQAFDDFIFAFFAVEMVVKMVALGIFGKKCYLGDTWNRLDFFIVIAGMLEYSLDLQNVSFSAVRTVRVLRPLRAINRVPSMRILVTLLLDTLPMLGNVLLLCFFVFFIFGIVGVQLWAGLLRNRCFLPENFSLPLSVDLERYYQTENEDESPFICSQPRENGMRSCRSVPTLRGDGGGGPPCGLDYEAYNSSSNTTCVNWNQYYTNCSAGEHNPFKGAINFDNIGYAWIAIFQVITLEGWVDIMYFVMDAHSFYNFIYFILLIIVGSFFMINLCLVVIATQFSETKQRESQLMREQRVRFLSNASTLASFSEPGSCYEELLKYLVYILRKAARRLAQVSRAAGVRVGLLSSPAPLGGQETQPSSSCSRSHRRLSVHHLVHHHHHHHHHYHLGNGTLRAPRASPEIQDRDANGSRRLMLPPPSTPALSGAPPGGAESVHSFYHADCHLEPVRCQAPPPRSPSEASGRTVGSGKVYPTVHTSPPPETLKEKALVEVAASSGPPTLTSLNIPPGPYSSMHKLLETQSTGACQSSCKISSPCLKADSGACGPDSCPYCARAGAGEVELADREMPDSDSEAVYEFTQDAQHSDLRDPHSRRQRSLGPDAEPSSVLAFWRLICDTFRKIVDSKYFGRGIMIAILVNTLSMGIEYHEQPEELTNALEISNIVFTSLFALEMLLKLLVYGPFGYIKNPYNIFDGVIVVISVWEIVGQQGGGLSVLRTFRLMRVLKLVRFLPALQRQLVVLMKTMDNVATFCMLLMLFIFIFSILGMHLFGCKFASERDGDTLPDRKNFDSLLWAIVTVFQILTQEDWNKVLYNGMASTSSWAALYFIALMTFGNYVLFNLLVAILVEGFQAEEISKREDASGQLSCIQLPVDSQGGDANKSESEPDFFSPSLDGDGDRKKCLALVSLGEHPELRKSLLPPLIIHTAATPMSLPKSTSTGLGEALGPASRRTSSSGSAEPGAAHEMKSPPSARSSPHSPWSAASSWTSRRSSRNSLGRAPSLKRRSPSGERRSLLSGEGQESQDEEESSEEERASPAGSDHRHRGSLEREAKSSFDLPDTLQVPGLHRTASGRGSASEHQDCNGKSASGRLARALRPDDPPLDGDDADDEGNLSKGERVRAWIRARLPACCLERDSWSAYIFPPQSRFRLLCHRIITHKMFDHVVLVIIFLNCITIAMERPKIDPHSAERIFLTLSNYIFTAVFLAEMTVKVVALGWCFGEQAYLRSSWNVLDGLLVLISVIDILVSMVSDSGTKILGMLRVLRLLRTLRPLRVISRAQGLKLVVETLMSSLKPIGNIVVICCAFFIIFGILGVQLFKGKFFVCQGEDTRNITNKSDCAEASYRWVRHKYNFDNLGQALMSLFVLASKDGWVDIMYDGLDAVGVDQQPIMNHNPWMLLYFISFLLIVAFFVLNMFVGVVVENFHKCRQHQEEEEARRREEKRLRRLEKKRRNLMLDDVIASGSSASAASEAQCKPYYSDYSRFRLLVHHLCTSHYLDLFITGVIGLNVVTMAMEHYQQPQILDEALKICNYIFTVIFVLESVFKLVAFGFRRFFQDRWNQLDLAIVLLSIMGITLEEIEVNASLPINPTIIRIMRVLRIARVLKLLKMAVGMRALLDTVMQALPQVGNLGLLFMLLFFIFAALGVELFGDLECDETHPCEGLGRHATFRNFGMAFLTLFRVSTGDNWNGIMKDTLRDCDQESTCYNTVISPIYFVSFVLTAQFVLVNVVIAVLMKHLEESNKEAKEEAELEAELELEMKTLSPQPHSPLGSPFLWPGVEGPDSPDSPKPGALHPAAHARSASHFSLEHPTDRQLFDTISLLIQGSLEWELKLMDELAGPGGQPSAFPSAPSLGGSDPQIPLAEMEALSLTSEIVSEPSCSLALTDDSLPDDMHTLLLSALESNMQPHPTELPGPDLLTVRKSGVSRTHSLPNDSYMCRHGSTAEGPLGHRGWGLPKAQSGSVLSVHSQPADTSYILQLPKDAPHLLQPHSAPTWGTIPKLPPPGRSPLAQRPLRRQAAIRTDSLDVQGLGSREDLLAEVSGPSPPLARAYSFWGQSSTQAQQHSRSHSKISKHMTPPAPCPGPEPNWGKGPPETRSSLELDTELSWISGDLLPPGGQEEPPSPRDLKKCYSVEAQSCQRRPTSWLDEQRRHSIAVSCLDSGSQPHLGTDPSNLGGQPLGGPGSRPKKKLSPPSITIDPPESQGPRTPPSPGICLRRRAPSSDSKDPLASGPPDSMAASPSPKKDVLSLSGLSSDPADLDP
Chain of human α1H T-type channels (O95180 whole entry): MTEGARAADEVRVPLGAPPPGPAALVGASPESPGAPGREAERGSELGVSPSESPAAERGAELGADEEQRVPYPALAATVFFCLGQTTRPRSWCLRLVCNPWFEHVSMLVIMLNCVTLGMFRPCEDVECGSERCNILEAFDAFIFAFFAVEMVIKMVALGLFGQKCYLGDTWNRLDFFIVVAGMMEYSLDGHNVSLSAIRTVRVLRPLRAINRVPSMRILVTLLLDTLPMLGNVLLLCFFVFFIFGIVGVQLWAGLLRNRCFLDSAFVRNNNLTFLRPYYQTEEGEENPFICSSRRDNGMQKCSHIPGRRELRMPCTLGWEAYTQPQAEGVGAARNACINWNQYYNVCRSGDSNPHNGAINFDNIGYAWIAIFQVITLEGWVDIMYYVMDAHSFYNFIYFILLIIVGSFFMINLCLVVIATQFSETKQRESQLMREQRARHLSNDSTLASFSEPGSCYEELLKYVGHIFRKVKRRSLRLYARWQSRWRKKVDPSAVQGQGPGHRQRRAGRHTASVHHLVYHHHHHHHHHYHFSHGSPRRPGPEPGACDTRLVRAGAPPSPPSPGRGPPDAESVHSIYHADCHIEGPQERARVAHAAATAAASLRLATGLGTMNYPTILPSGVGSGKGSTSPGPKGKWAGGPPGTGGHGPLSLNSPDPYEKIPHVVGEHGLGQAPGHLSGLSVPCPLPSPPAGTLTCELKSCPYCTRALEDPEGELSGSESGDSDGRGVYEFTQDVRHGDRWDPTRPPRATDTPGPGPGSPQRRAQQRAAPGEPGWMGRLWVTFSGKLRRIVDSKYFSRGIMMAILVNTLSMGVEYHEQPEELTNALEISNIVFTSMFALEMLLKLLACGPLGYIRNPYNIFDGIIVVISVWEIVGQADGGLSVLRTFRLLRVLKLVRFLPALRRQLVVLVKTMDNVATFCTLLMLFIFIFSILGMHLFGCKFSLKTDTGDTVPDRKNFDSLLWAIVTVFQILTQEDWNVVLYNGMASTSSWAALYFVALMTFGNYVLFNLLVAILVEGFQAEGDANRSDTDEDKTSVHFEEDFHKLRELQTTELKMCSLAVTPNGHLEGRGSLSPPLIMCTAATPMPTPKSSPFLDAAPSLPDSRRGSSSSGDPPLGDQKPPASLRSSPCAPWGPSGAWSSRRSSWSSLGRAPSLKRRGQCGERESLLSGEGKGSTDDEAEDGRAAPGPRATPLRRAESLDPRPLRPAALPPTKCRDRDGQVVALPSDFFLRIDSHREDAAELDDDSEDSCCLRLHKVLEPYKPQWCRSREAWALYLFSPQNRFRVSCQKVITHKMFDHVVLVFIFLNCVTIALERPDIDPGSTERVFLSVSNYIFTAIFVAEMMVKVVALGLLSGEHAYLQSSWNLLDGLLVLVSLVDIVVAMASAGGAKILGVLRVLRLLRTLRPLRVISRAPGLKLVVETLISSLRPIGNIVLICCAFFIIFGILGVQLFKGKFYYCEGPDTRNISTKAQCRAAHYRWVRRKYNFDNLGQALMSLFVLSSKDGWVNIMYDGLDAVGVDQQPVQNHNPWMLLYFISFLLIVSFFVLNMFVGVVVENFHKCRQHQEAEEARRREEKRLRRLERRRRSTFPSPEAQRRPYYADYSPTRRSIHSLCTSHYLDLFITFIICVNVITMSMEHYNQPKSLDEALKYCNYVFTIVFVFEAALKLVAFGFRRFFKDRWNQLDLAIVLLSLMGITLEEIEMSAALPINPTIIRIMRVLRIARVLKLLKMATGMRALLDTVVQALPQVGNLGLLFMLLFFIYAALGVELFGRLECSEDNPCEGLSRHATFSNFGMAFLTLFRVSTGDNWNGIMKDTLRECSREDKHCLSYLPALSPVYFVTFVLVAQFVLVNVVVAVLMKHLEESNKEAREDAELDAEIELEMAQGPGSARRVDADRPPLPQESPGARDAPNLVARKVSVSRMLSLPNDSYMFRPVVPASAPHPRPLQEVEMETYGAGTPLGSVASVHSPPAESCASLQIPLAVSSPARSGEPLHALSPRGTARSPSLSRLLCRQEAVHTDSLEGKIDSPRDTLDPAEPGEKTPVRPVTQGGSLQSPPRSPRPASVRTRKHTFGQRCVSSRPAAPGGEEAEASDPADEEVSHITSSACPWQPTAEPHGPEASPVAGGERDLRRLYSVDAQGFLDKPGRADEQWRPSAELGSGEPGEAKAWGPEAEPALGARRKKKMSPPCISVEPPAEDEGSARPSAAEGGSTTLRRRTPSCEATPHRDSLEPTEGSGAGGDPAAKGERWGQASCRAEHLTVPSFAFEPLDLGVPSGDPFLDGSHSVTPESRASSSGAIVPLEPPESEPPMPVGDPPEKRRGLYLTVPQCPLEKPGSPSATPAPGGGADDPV

Row | IC50 [1] | IC50 [2] | IC50 [3] | SMILES
1 | 1530 nM | 4.94 µM | 860 nM | O=C(CN[C@H]1CC[C@@H](S(=O)(=O)c2cccc(C(F)(F)F)c2)CC1)Nc1ccccn1 [Compound 57, N-(pyridin-2-yl)-2-((1S,4S)-4-(3-(trifluoromethyl)phenylsulfonyl)cyclohexylamino)acetamide]
2 | 2470 nM | > 10 µM | 710 nM | O=C(N[C@H]1CC[C@@](F)(S(=O)(=O)c2cc(F)cc(C(F)(F)F)c2)CC1)c1cc(C(F)(F)F)ccn1 [Compound 328, N-((1S,4S)-4-fluoro-4-(3-fluoro-5-(trifluoromethyl)phenylsulfonyl)cyclohexyl)-4-(trifluoromethyl)picolinamide]
3 | 9260 nM | > 10 µM | 1430 nM | O=C(Nc1ccc(Oc2ccc(C(F)(F)F)nc2)nc1)[C@H]1C[C@H](S(=O)(=O)c2cccc(C(F)(F)F)c2)C1 [Compound 401, (1R,3R)-3-(3-(trifluoromethyl)phenylsulfonyl)-N-(6-(6-(trifluoromethyl)pyridin-3-yloxy)pyridin-3-yl) cyclobutanecarboxamide]
4 | 1790 nM | 3.49 µM | 1240 nM | O=C(Nc1cc(C(F)(F)F)ccn1)[C@H]1C[C@@H](S(=O)(=O)c2cccc(C(F)(F)F)c2)C1 [Compound 410, (1S,3S)-3-(3-(trifluoromethyl)phenylsulfonyl)-N-(4-(trifluoromethyl)pyridin-2-yl)cyclobutanecarboxamide]
5 | 9630 nM | 7.17 µM | 260 nM | O=C(NC[C@H]1C[C@H](S(=O)(=O)c2cccc(C(F)(F)F)c2)C1)c1cc(C(F)(F)F)ccn1 [Compound 372, 4-(trifluoromethyl)-N-(((1R,3R)-3-(3-(trifluoromethyl)phenylsulfonyl)cyclobutyl)methyl)picolinamide]
6 | 1560 nM | 1.14 µM | 1290 nM | COc1cc(Cl)ccc1C(=O)N[C@H]1CC[C@H](S(=O)(=O)c2cccc(C(F)(F)F)c2)CC1 [Compound 127, 4-chloro-2-methoxy-N-((1R,4R)-4-(3-(trifluoromethyl)phenylsulfonyl)cyclohexyl)benzamide]
7 | 1460 nM | 8.53 µM | 30 nM | CC(C)S(=O)(=O)c1cc(C(F)(F)F)cnc1C(=O)N[C@H]1CC[C@@](F)(S(=O)(=O)c2cccc(C(F)(F)F)c2)CC1 [Compound 281, N-((1S,4S)-4-fluoro-4-(3-(trifluoromethyl)phenylsulfonyl)cyclohexyl)-3-(isopropylsulfonyl)-5-(trifluoromethyl)picolinamide]
8 | 220 nM | 0.38 µM | 410 nM | O=C(N[C@H]1CC[C@](F)(S(=O)(=O)c2cccc(C(F)(F)F)c2)CC1)c1cc(F)cc(Cl)c1 [Compound 81, 3-chloro-5-fluoro-N-((1R,4R)-4-fluoro-4-(3-(trifluoromethyl)phenylsulfonyl)cyclohexyl)benzamide]
9 | 190 nM | 0.29 µM | 600 nM | O=C(N[C@H]1CC[C@@H](S(=O)(=O)c2cc(F)cc(C(F)(F)F)c2)CC1)c1ccc(F)c(Cl)c1 [Compound 320, 3-chloro-4-fluoro-N-((1S,4S)-4-(3-fluoro-5-(trifluoromethyl)phenylsulfonyl)cyclohexyl) benzamide]
10 | 550 nM | 0.54 µM | 440 nM | COc1cc(F)cc(C(=O)N[C@H]2CC[C@@H](CS(=O)(=O)c3cccc(C(F)(F)F)c3)CC2)c1 [Compound 136, 3-fluoro-5-methoxy-N-((1S,4S)-4-((3-(trifluoromethyl)phenylsulfonyl)methyl)cyclohexyl)benzamide]
11 | 1910 nM | > 10 µM | 30 nM | O=C(N[C@H]1CC[C@@](F)(S(=O)(=O)c2cccc(C(F)(F)F)c2)CC1)c1ccnc(C(F)(F)F)n1 [Compound 268, N-((1S,4S)-4-fluoro-4-(3-(trifluoromethyl)phenylsulfonyl)cyclohexyl)-2-(trifluoromethyl)pyrimidine-4-carboxamide]
12 | 410 nM | 1.26 µM | 5540 nM | O=C(N[C@H]1C[C@H](CS(=O)(=O)c2cccc(C(F)(F)F)c2)C1)c1ccc(C(F)(F)F)nc1 [Compound 346, 6-(trifluoromethyl)-N-((1R,3R)-3-((3-(trifluoromethyl)phenylsulfonyl)methyl)cyclobutyl)nicotinamide]
13 | 320 nM | 0.63 µM | 790 nM | O=S(=O)(CCC(F)(F)F)N[C@H]1CC[C@@](F)(S(=O)(=O)c2cccc(C(F)(F)F)c2)CC1 [Compound 295, 3,3,3-trifluoro-N-((1S,4S)-4-fluoro-4-(3-(trifluoromethyl)phenylsulfonyl)cyclohexyl) propane-1-sulfonamide]
14 | > 10000 nM | > 10 µM | 790 nM | O=C(CN[C@H]1CC[C@H](CS(=O)(=O)c2cccc(C(F)(F)F)c2)CC1)NC1CCCCC1 [Compound 118, N-cyclohexyl-2-((1R,4R)-4-((3-(trifluoromethyl)phenylsulfonyl)methyl)cyclohexylamino)acetamide]
15 | 1130 nM | 6.5 µM | 310 nM | O=C(N[C@H]1CC[C@@](F)(S(=O)(=O)c2cccc(C(F)(F)F)c2)CC1)[C@@H]1C[C@@H](Cc2ccc(F)cc2)CN1 [Compound 287, (2S,4R)-N-((1S,4R)-4-fluoro-4-(3-(trifluoromethyl)phenylsulfonyl)cyclohexyl)-4-(4-fluorobenzyl)pyrrolidine-2-carboxamide]
16 | > 10000 nM | > 10 µM | 1280 nM | O=S(=O)(NC[C@H]1C[C@H](S(=O)(=O)c2cccc(C(F)(F)F)c2)C1)c1ccc(C(F)(F)F)cc1Cl [Compound 423, 2-chloro-4-(trifluoromethyl)-N-(((1R,3R)-3-(3-(trifluoromethyl)phenylsulfonyl)cyclobutyl)methyl)benzenesulfonamide]
17 | 3900 nM | 6.44 µM | 370 nM | O=C(N[C@H]1CC[C@H](S(=O)(=O)c2cccc(C(F)(F)F)c2)CC1)c1cc(F)cc(Cl)c1 [Compound 60, 3-chloro-5-fluoro-N-((1R,4R)-4-(3-(trifluoromethyl)phenylsulfonyl)cyclohexyl)benzamide]
18 | 960 nM | 2.85 µM | 480 nM | O=C(N[C@H]1CC[C@](F)(S(=O)(=O)c2cccc(C(F)(F)F)c2)CC1)c1ccc(F)c(C(F)(F)F)c1 [Compound 83, 4-fluoro-N-((1R,4R)-4-fluoro-4-(3-(trifluoromethyl)phenylsulfonyl)cyclohexyl)-3-(trifluoromethyl)benzamide]
19 | 400 nM | 0.35 µM | 210 nM | O=C(N[C@H]1CC[C@@H](S(=O)(=O)c2cccc(C(F)(F)F)c2)CC1)c1ccc(Cl)c(OC(F)(F)F)c1 [Compound 133, 4-chloro-3-(trifluoromethoxy)-N-((1S,4S)-4-(3-(trifluoromethyl)phenylsulfonyl)cyclohexyl)benzamide]
20 | 750 nM | 2.79 µM | 630 nM | Cn1nc(C(F)(F)F)cc1C(=O)N[C@H]1CC[C@@](F)(S(=O)(=O)c2cc(F)cc(C(F)(F)F)c2)CC1 [Compound 327, N-((1S,4S)-4-fluoro-4-(3-fluoro-5-(trifluoromethyl)phenylsulfonyl)cyclohexyl)-1-methyl-3-(trifluoromethyl)-1Hpyrazole-5-carboxamide]
21 | > 10000 nM | > 10 µM | 90 nM | CN(C(=O)CN[C@H]1CC[C@@H](S(=O)(=O)c2cccc(C(F)(F)F)c2)CC1)C(C)(C)C [Compound 50, N-tert-butyl-N-methyl-2-((1S,4S)-4-(3-(trifluoromethyl)phenylsulfonyl)cyclohexylamino)acetamide]
22 | > 10000 nM | > 10 µM | 8990 nM | O=C(N[C@H]1CC[C@H](S(=O)(=O)c2cccc(C(F)(F)F)c2)CC1)C1(C(F)(F)F)CCC1 [Compound 66, 1-(trifluoromethyl)-N-((1R,4R)-4-(3-(trifluoromethyl)phenylsulfonyl)cyclohexyl)cyclobutanecarboxamide]
23 | 650 nM | 2.87 µM | 310 nM | O=C(N[C@H]1CC[C@@](F)(S(=O)(=O)c2cccc(C(F)(F)F)c2)CC1)c1cc(C(F)(F)F)ccn1 [Compound 84, N-((1S,4S)-4-fluoro-4-(3-(trifluoromethyl)phenylsulfonyl)cyclohexyl)-4-(trifluoromethyl)picolinamide]
24 | > 10000 nM | > 10 µM | 630 nM | Cn1nc(C(F)(F)F)cc1C(=O)N[C@H]1CC[C@H](CS(=O)(=O)c2cccc(C(F)(F)F)c2)CC1 [Compound 102, 1-methyl-3-(trifluoromethyl)-N-((1R,4R)-4-((3-(trifluoromethyl)phenylsulfonyl)methyl)cyclohexyl)-1H-pyrazole-5-carboxamide]
25 | 1810 nM | 7.49 µM | 3000 nM | COc1cc(F)cc(C(=O)N[C@H]2CC[C@](F)(S(=O)(=O)c3cccc(C(F)(F)F)c3)CC2)c1 [Compound 82, 3-fluoro-N-((1R,4R)-4-fluoro-4-(3-(trifluoromethyl)phenylsulfonyl)cyclohexyl)-5-methoxybenzamide]

Row | SMILES | IC50 [1] | IC50 [2] | IC50 [3]
26 | O=C(NC[C@H]1C[C@H](S(=O)(=O)c2cccc(C(F)(F)F)c2)C1)c1cn2cc(C(F)(F)F)ccc2n1 [Compound 360, 6-(trifluoromethyl)-N-(((1R,3R)-3-(3-(trifluoromethyl)phenylsulfonyl)cyclobutyl)methyl)imidazo[l,2-a]pyridine-2-carboxamide] | > 10000 nM | > 10 µM | 190 nM
